From BindingDB's records for doi:10.1016/j.ejmech.2021.113604 (China Pharmaceutical University, 2021)

What was measured:
Endoplasmin = Endoplasmin (Canis lupus familiaris, UniProt P41148); experiment: Binding affinity to GST-tagged dog GRP94 (69 to 337 residues) expressed in Escherichia coli BL21 (DE3) assessed as dissociation constant at 0.37 to 10 uM measured by BLI assay
[1] = biological target: Heat shock protein HSP 90-alpha (Homo sapiens, UniProt P07900); experiment: Binding affinity to His-tagged human N-terminal HSP90alpha (1 to 236 residues) expressed in Escherichia coli BL21 (DE3) assessed as dissociation constant at 1.1 to 30 uM measured by BLI assay

Chain of Endoplasmin (P41148 whole entry, the tested form may be a part): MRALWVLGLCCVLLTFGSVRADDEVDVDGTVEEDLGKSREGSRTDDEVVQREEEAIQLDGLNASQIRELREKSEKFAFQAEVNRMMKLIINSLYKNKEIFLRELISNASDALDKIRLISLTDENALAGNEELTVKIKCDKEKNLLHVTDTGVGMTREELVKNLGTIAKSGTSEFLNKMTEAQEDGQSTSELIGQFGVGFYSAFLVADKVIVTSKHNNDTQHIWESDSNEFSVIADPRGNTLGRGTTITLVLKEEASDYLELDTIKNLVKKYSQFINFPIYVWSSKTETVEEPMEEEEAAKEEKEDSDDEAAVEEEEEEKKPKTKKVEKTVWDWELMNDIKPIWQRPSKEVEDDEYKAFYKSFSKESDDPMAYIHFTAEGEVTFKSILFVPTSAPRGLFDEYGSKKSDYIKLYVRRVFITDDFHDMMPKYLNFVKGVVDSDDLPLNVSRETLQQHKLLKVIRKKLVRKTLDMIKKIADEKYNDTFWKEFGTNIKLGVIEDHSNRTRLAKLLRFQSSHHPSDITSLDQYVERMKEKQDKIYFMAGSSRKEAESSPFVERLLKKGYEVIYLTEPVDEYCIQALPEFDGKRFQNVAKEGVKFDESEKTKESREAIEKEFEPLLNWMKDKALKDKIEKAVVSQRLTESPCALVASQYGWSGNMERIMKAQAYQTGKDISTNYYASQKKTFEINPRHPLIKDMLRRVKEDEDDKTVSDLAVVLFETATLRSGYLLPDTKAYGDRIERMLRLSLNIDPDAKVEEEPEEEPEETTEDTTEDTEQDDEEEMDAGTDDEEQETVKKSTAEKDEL

With `CCCCC#Cc1ccc(N[C@H]2CC[C@H](O)CC2)c(C(N)=O)c1` the koff (Endoplasmin) was 0.0284 s⁻¹ and the koff [1] was 0.114 s⁻¹.
